Measured values from ChEMBL document CHEMBL1201862, “PubChem BioAssay data set” (2004).
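Five concentrations, 48 hours, 96-well plates. At the GI50, growth is halved.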 Calls of active or inactive are those of the source. Rule as the data show it: active = GI50 up to about 1.1 µM and inactive = higher.

Columns and labels:
Assay in all cases: DTP human tumour cell line panel, 48 h
RXF 631 = system: RXF 631
T47D = system: T47D
BT-549 = system: BT-549
DU-145 = system: DU-145
MDA-N = system: MDA-N
MDA-MB-435 = system: MDA-MB-435
MDA-MB-231 = system: MDA-MB-231
Hs-578T = system: Hs-578T

Measured: GI50

COCCOCOC(C)(C)[C@H](CCO)O[Si](c1ccccc1)(c1ccccc1)C(C)(C)C
inactive: RXF 631 5.85 µM

COc1ccc(-c2c(C#N)c(NC(=S)NC(=O)c3ccccc3)nc3c2CCCC3)cc1OC
inactive: T47D 14.9 µM | BT-549 > 100 µM | DU-145 > 100 µM | MDA-N 65.3 µM | MDA-MB-435 66.1 µM | MDA-MB-231 34.7 µM | Hs-578T 33.3 µM

CC1(C)N/C(=C\C=O)C(C)(C)N1O
inactive: DU-145 > 100 µM | MDA-N > 100 µM | MDA-MB-435 > 100 µM | MDA-MB-231 > 100 µM | Hs-578T > 100 µM
